Laboratory results taken from ChEMBL document CHEMBL1201862, “PubChem BioAssay data set” (2004).
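Protocol summary: plate cells (96-well), add compound at 5 concentrations, incubate 48 h, interpolate endpoints linearly. Abbreviation: GI50, concentration required for 50% inhibition of growth.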 Active and inactive are the calls of the source. Rule as the data show it: active = GI50 up to about 1.1 µM and inactive = higher.

Assays:
Experiment in all cases: growth of human tumour cells (NCI), 48 h
[1] = test system: NCI-H23
[2] = test system: MDA-MB-231
[3] = test system: NCI-H226
[4] = test system: MOLT-4
[5] = test system: HCT-116
[6] = test system: DU-145
[7] = test system: T47D
[8] = test system: HT-29
[9] = test system: HOP-62
[10] = test system: HCC 2998
[11] = test system: SK-MEL-5
[12] = test system: BT-549
[13] = test system: SNB-19
[14] = test system: UO-31
[15] = test system: A549
[16] = test system: EKVX
[17] = test system: NCI-H522
[18] = test system: PC-3
[19] = test system: MDA-N
[20] = test system: SK-OV-3
[21] = test system: HCT-15
[22] = test system: SK-MEL-2
[23] = test system: SF-268
[24] = test system: Malme-3M
[25] = test system: UACC-257
[26] = test system: OVCAR-4
[27] = test system: MDA-MB-435
[28] = test system: SK-MEL-28
[29] = test system: SW-620
[30] = test system: SF-539
[31] = test system: OVCAR-3
[32] = test system: UACC-62
[33] = test system: HL-60
[34] = test system: HOP-92
[35] = test system: Hs-578T
[36] = test system: CAKI-1
[37] = test system: SN12C
[38] = test system: K562
[39] = test system: KM12
[40] = test system: 786-0
[41] = test system: OVCAR-8
[42] = test system: CCRF-CEM
[43] = test system: SNB-75
[44] = test system: IGROV-1
[45] = test system: TK-10
[46] = test system: SF-295
[47] = test system: COLO 205
[48] = test system: U-251
[49] = test system: RXF 393
[50] = test system: RPMI-8226
[51] = test system: SR
[52] = test system: M14
[53] = test system: ACHN
[54] = test system: NCI-H460
[55] = test system: LOX IMVI
[56] = test system: A498
[57] = test system: OVCAR-5
[58] = test system: NCI/ADR-RES
[59] = test system: MCF7

## CN(C)Cc1cc(C(C)(C)C)ccc1-c1ccc(C(C)(C)C)cc1CN(C)C
[1]
  GI50: > 100 µM (inactive)
[2]
  GI50: > 100 µM (inactive)
[3]
  GI50: > 100 µM (inactive)
[4]
  GI50: > 100 µM (inactive)
[5]
  GI50: > 100 µM (inactive)
[6]
  GI50: > 100 µM (inactive)
[7]
  GI50: > 100 µM (inactive)
[8]
  GI50: 35 µM (inactive)
[9]
  GI50: > 100 µM (inactive)
[10]
  GI50: 10.2 µM (inactive)
[11]
  GI50: > 100 µM (inactive)
[12]
  GI50: > 100 µM (inactive)
[13]
  GI50: > 100 µM (inactive)
[14]
  GI50: 81.3 µM (inactive)
[15]
  GI50: > 100 µM (inactive)
[16]
  GI50: 62.2 µM (inactive)
[17]
  GI50: 57.8 µM (inactive)
[18]
  GI50: 43.7 µM (inactive)
[19]
  GI50: > 100 µM (inactive)
[20]
  GI50: > 100 µM (inactive)
[21]
  GI50: > 100 µM
[22]
  GI50: > 100 µM (inactive)
[23]
  GI50: > 100 µM (inactive)
[24]
  GI50: 51.9 µM (inactive)
[25]
  GI50: 37.1 µM (inactive)
[26]
  GI50: > 100 µM (inactive)
[27]
  GI50: 84.3 µM (inactive)
[28]
  GI50: 41.1 µM (inactive)
[29]
  GI50: > 100 µM (inactive)
[30]
  GI50: > 100 µM (inactive)
[31]
  GI50: 43.3 µM (inactive)
[32]
  GI50: > 100 µM (inactive)
[33]
  GI50: > 100 µM (inactive)
[34]
  GI50: > 100 µM (inactive)
[35]
  GI50: > 100 µM (inactive)
[36]
  GI50: > 100 µM (inactive)
[37]
  GI50: > 100 µM (inactive)
[38]
  GI50: 40.7 µM (inactive)
[39]
  GI50: > 100 µM (inactive)
[40]
  GI50: > 100 µM (inactive)
[41]
  GI50: > 100 µM (inactive)
[42]
  GI50: 56.8 µM (inactive)
[43]
  GI50: 88.1 µM (inactive)
[44]
  GI50: > 100 µM (inactive)
[45]
  GI50: > 100 µM (inactive)
[46]
  GI50: > 100 µM (inactive)
[47]
  GI50: 64.3 µM (inactive)
[48]
  GI50: 77.8 µM (inactive)
[49]
  GI50: > 100 µM (inactive)
[50]
  GI50: 39.9 µM (inactive)
[51]
  GI50: > 100 µM (inactive)
[52]
  GI50: 41.6 µM (inactive)
[53]
  GI50: > 100 µM (inactive)
[54]
  GI50: 96.8 µM (inactive)
[55]
  GI50: > 100 µM (inactive)
[56]
  GI50: 75.3 µM (inactive)
[57]
  GI50: > 100 µM (inactive)
[58]
  GI50: > 100 µM (inactive)
[59]
  GI50: 66.7 µM (inactive)

## Nc1c2c(nc3ccccc13)-c1ccccc1CCC2
[1]
  GI50: 15.7 µM (inactive)
[2]
  GI50: 13.8 µM (inactive)
[3]
  GI50: 13.6 µM (inactive)
[4]
  GI50: 8.34 µM (inactive)
[5]
  GI50: 7.16 µM (inactive)
[6]
  GI50: 15.5 µM (inactive)
[7]
  GI50: 13.2 µM (inactive)
[8]
  GI50: 10.3 µM (inactive)
[9]
  GI50: 10.2 µM (inactive)
[10]
  GI50: 3.08 µM (inactive)
[11]
  GI50: 7.91 µM (inactive)
[12]
  GI50: 17.6 µM (inactive)
[13]
  GI50: 17.7 µM (inactive)
[14]
  GI50: 10.5 µM (inactive)
[15]
  GI50: 13.8 µM (inactive)
[16]
  GI50: 17.3 µM (inactive)
[17]
  GI50: 15.6 µM (inactive)
[18]
  GI50: 15.1 µM (inactive)
[19]
  GI50: 13.2 µM (inactive)
[20]
  GI50: 15.2 µM (inactive)
[21]
  GI50: 14.3 µM
[22]
  GI50: 15 µM (inactive)
[23]
  GI50: 17.6 µM (inactive)
[24]
  GI50: 14.4 µM (inactive)
[25]
  GI50: 5.94 µM (inactive)
[26]
  GI50: 14.4 µM (inactive)
[27]
  GI50: 13.5 µM (inactive)
[28]
  GI50: 12.7 µM (inactive)
[29]
  GI50: 11.6 µM (inactive)
[30]
  GI50: 13.4 µM (inactive)
[31]
  GI50: 14.1 µM (inactive)
[32]
  GI50: 10.7 µM (inactive)
[33]
  GI50: 10.1 µM (inactive)
[34]
  GI50: 9.12 µM (inactive)
[35]
  GI50: 20.2 µM (inactive)
[36]
  GI50: 14.4 µM (inactive)
[37]
  GI50: 16.3 µM (inactive)
[38]
  GI50: 6.65 µM (inactive)
[39]
  GI50: 14.1 µM (inactive)
[40]
  GI50: 14.1 µM (inactive)
[41]
  GI50: 15 µM (inactive)
[42]
  GI50: 13.5 µM (inactive)
[43]
  GI50: 10.2 µM (inactive)
[44]
  GI50: 14.1 µM (inactive)
[45]
  GI50: 10.7 µM (inactive)
[46]
  GI50: 5.98 µM (inactive)
[47]
  GI50: 14.1 µM (inactive)
[48]
  GI50: 15 µM (inactive)
[49]
  GI50: 11.2 µM (inactive)
[50]
  GI50: 8.67 µM (inactive)
[51]
  GI50: 2.39 µM (inactive)
[52]
  GI50: 13.1 µM (inactive)
[53]
  GI50: 13.7 µM (inactive)
[54]
  GI50: 4.89 µM (inactive)
[55]
  GI50: 12.7 µM (inactive)
[56]
  GI50: 8.22 µM (inactive)
[57]
  GI50: 13 µM (inactive)
[58]
  GI50: 14.2 µM (inactive)
[59]
  GI50: 13.6 µM (inactive)
